One data set deals with HDAC1-3 enzymes. The note with it: via the HDAC1-3 enzymes; cited from earlier work.
In data set [1] the test system is E17.5 hippocampal neurons. Put plainly: Cellular viability of neurons exposed to NaBt. In kind it is cell-based. The conditions noted are these: 2 mM NaBt.
A further data set deals with E17.5 neurons. Put plainly: In vivo mitochondrial mass of E17.5 brains from treated pregnant dams. More on the design: species or system mice. The conditions noted are these: E12.5 pregnant dams, NaBt 1.2 g/Kg intraperitoneally vs PBS. The source says:
FIG. 7A-7F show images from microscopy and graphs showing NaBt increases mitochondrial mass. (A) Live cell confocal microscopy of E17.5 hippocampal neurons; high magnification in inset; scale bar=5 (B) Quantitative analysis of the mitochondrial biomass in E17.5 neurons using an anti-CoxVα antibody; *p<0.001. (C) Live cell confocal microscopy of PC12-ND6 cells; high magnification in inset; scale bar=5 (D) Flow cytometric analysis of mitochondrial mass; *p<0.001. (E) Confocal microscopy of E17.5 brains from E12.5 pregnant dams treated with PBS (sham) or NaBt; scale bar=20 (F) Quantitative analysis of mitochondrial mass; *p<0.001.
Experimental paradigms. These are: 1) E17.5 differentiating hippocampal neurons expressing NeuroD6; 2) the PC12-NeuroD6 neuronal cell line recapitulating the early stages of differentiation; 3) E12.5 timed-pregnant dams treated intraperitoneally with NaBt (1.2 g/Kg) or PBS; and 4) cultured primary skin fibroblasts isolated from two MELAS patients and a healthy subject. Patient fibroblasts are the most suitable system to investigate the therapeutic potential of the butyrate derivatives (NaBt, TBN, and AN9) within the context of the patient's nuclear background and heteroplasmy, as MELAS animal models have not been generated due to polyploidy of the mt genome, heteroplasmic load, and influence of the nuclear background on MELAS phenotypic variability. […]

Data set [2] relates to MELAS fibroblasts. Put plainly: Morphometric analysis of mitochondrial connectivity (Image J). The format is cell-based, human. The conditions noted are these: Image J analysis of MTG-labeled fibroblasts. As to the method:
FIG. 18 is a graph showing that butyrate and its derivatives rescue the mitochondrial dynamics and connectivity in MELAS fibroblasts.
(§1) Butyrates rescue the mitochondrial mass, morphology, networking, and membrane potential in MELAS fibroblasts. Skin fibroblasts from two MELAS patients and from a healthy subject as a control were used. Dose-dependent analyses of butyrates was performed to determine their best concentrations for eliciting an optimal mitochondrial response without cellular toxicity. Healthy and MELAS fibroblasts were treated with PBS, NaBt (2.5 mM), TBN (1.5 mM), or AN9 (300 μM) for three days before labeling with the MTG dye for live cell confocal analysis.

The test system of data set [3] is MELAS fibroblasts. Put plainly: Mitochondrial mass, morphology and networking (MTG live cell confocal analysis). The format is cell-based, human. The conditions noted are these: three-day exposure; NaBt 2.5 mM, TBN 1.5 mM, AN9 300 μM.
Excerpt: FIG. 17A-17C are images from microscopy and graphs showing that butyrates rescue the mitochondrial phenotype in MELAS fibroblasts. (A) Confocal analysis of healthy and MELAS fibroblasts treated as indicated and labeled with the MTG dye; scale bar=10 (B) Analysis of the mitochondrial mass; n=3 (60 cells per experiment; ^‡p<0.05, unpaired T-test *p<0.05, paired T-test). (C) Analysis of Δψm (^‡p<0.05, unpaired T-test; *p<0.05, paired T-test).
Butyrates rescue the mitochondrial mass, morphology, networking, membrane potential, and cellular ATP levels in MELAS fibroblasts. Skin fibroblasts from two MELAS patients and from a healthy subject as a control were used. Dose-dependent analyses of butyrates to determine their best concentrations for eliciting an optimal mitochondrial response without cellular toxicity was performed. Healthy and MELAS fibroblasts were treated with PBS, NaBt (2.5 mM), TBN (1.5 mM), or AN9 (300 μM) for three days before labeling with the MTG dye for live cell confocal analysis.
as §1

In data set [4] the test system is E17.5 hippocampal neurons. Put plainly: NaBt dose-dependent acetylation of nuclear proteins in neurons. In kind it is cell-based. The conditions noted are these: E17.5 hippocampal neurons at 1DIV. The source says: FIG. 4A-4E are images from microscopy and graphs showing NaBt dose-dependent acetylation and cellular toxicity in PC12-ND6 cells and embryonic E17.5 hippocampal neurons. (A) Confocal micrographs of PC12-ND6 cells (referred to as ND6) grown in the absence or presence of NaBt for three days and labeled with an anti-acetylated Lys antibody (AcLys; green). Scale bar represents 10 μm. […] Results are expressed as relative fluorescence intensity±S.D. (n=250 cells per NaBt concentration; * p=0.0001). (C) Effect of NaBt on PC12-ND6 cell viability. […] Mean±SEM (n=250 cells for each experimental condition; * p=0.0001). (D) Confocal micrographs of NaBt dose-dependent acetylation in E17.5 hippocampal neurons (AcLys; green). Scale bar represents 10 μm.
Sodium butyrate increases protein acetylation in a dose-dependent manner without inducing cellular toxicity. A dose response analysis was performed to determine the optimal concentration of sodium butyrate (NaBt) for inducing maximal acetylation levels with minimal cellular toxicity. PC12-ND6 cells were treated with different concentrations of NaBt (2 mM, 5 mM, and 10 mM) for three days before assessing the degree of acetylated lysine residues by immunocytochemistry and cell viability by live-cell confocal microscopy using the Nuclear-ID™ stain.

Another data set deals with Tfam. Put plainly: Quantitative immunoblot analysis of Tfam. The format is cell-based. The conditions noted are these: NaBt treatment, PC12-ND6. The source says: FIG. 11A-11D are images from microscopy and graphs showing NaBt promotes mtDNA replication via the NRF-1/Tfam axis. (A) Confocal analysis of mtDNA foci; scale bar=5 (B) Quantitative analysis of mtDNA copy number by PCR; *p<0.001. (C, D) Quantitative immunoblot analysis of NRF-1 and Tfam; *p<0.001.
NaBt enhances mtDNA replication via the PGC1α-mediated NRF-1/Tfam axis. It was investigated whether NaBt enhanced mtDNA replication using the PicoGreen® dye to label mtDNA. PC12-ND6 cells were transfected with the mito-dsRed vector prior to NaBt treatment followed by PicoGreen® staining. […] To corroborate enhanced mitochondrial biogenesis, two key target genes of PGC1α were examined, the NRF-1 transcription factor and its direct target gene Tfam, both essential for mitochondrial biogenesis. […] The findings confirm the NaBt-mediated modulation of mitochondrial biogenesis and mtDNA replication in neuronal cells.
Background: In western blotting, separated proteins are transferred to a membrane and probed.

With `CCCC(=O)[O-].[Na+]` [NaBt, sodium butyrate], in the data set with HDAC1-3 enzymes, the “subset of genes targeted” value is on record as 2-5%. In addition, in data set [1], the cellular viability result is reported as “without affecting cellular viability”. Also, the “increase of in vivo mitochondrial mass of E17.5 neurons” value in the data set with E17.5 neurons was found to be 1.6 fold. The connectivity among mitochondria entry in the data set with MELAS fibroblasts [2] was “rescue the connectivity among mitochondria”. Further, the “mitochondrial mass, morphology, and networking” value in the data set with MELAS fibroblasts [3] was “restored normal mitochondrial mass, morphology, and networking”. Besides, the “NaBt concentration resulting in near maximal acetylation levels of nuclear proteins” value in data set [4] is listed as 2 mM. In addition, in the data set with Tfam, the Tfam expression entry is “induced Tfam expression on day 2”.

Source of the values: US10272056B2, “Treatment for mitochondrial diseases” (The George Washington University a Congressionally …, priority 2015, dated 2019).
